These results are taken from ChEMBL document CHEMBL2321873, “1-(4-Phenylpiperazin-1-yl)-2-(1H-pyrazol-1-yl)ethanones as novel CCR1 antagonists” (Bioorg Med Chem Lett, 2013).

Data set [1] is described as follows: Clearance in Sprague-Dawley rat at 0.5 mg/kg, iv. Format: ADME, organism-based. Further details: dose 0.5 mg/kg, route intravenous. The conditions noted are these: in vivo.
Data set [2] can be described thus: Half life in Sprague-Dawley rat at 0.5 mg/kg, iv. The data set is classed as ADME, organism-based. The arrangement: dose 0.5 mg/kg, route intravenous. As to conditions: in vivo.
The nature of data set [3]: Oral bioavailability in Sprague-Dawley rat at 5 mg/kg. The data set is classed as ADME, organism-based. The conditions noted are these: in vivo.
Data set [4] can be described thus: Stability of the compound at pH 7.4. Format: physicochemical. The conditions noted are these: buffer.

For `Cc1c(Cl)c(C(F)(F)F)nn1CC(=O)N1CCN(c2ccc(F)cc2)CC1`, the clearance in data set [1] was 23 mL/min/kg. For the same compound, in data set [2], the half-life is 1.9 h. The same compound came in with a bioavailability in data set [3] of 10%.
On to `COc1cc(N2CCN(C(=O)Cn3nc(C(F)(F)F)c(Cl)c3C)[C@H](CO)C2)ccc1Cl`, for which the Stability result in data set [4] was “Unstable”.

For orientation: clearance means the rate of elimination divided by the concentration. A high value points to a high capacity for elimination. What is called half-life is the time needed for the level to fall by half in the phase considered. A low value points to rapid decline. By bioavailability is commonly meant dose-corrected exposure relative to a reference, in per cent. The low end stands for little systemic uptake, the high end for much systemic uptake.
